According to article PMC11264232, “Are the metal identity and stoichiometry of metal complexes important for colchicine site binding and inhibition of tubulin polymerization?” (Dalton Transactions (Cambridge, England : 2003), 2024):
Where “and” joins values, the source holds several entries; their conditions need not be identical. Equal entries are not always repeated. Marks after values point to notes of the source that are not given here.

Legend:
[1] = Solution stability by UV–vis spectrophotometry; type: physicochemical
[2] = Cyclic voltammetry in DMSO/nBu4NPF6; type: physicochemical; settings: scan rate 100 mV s^−1
Protocol: Cyclic voltammetric experiments with 0.5 mM solutions of 1–3 in 0.1 M nBu4NPF6 (puriss quality from Fluka (Schwerte, Germany), dried under reduced pressure at 70 °C for 24 h before use) supporting electrolyte in DMSO (SeccoSolv max. 0.025% H2O, Merck) were performed under argon atmosphere using a three-electrode setup with a platinum disk or a glassy carbon disk working electrode (from Ionode, Australia), platinum wire as a counter electrode, and silver wire as a pseudo reference electrode. All potentials in voltammetric studies were quoted vs. ferricenium/ferrocene (Fc^+/Fc) redox couple. A Heka PG310USB (Lambrecht, Germany) potentiostat with a PotMaster 2.73 software package served for the potential control in voltammetric studies. In situ ultraviolet-visible-near-infrared (UV–Vis–NIR) spectroscopic and spectroelectrochemical measurements were performed on a spectrometer Avantes (Model AvaSpec-2048_14-USB2) in 1 cm quartz cuvette or the spectroelectrochemical cell kit ([…]3) with the Pt-microstructured honeycomb working electrode, purchased from Pine Research Instrumentation (Lyon, France). The cell was positioned in the CUV-UV Cuvette Holder (Ocean Optics, Ostfildern, Germany) connected to the diode-array UV–Vis–NIR spectrometer by optical fibres. UV–Vis–NIR spectra were processed using the AvaSoft 7.7 software package. Halogen and deuterium lamps were used as light sources (Avantes, Model AvaLight-DH-S-BAL, Apeldoorn, The Netherlands). EPR spectra were measured with a X-band cw-EPR spectrometers EMX and EMX plus (Bruker) at room temperature or 100 K. Spectroelectrochemical experiments were performed in a flat cell equipped with a Pt mesh working electrode using nBu4NPF6/DMSO electrolyte. Measurements in frozen solvent glass were done in MeCN/DMF 1 : 1 v/v. Complexes 4 and 5 were dissolved under ambient conditions, and complex 3 was reduced with a stoichiometric equivalent of cobaltocene in a N2 glovebox (N2 < 2 ppm, H2O < 1 ppm). The MeCN/DMF solutions were flash frozen in liquid N2 prior to transfer to the N2 flow cryostat precooled at 100 K inside the cavity of the EPR resonator. EPR spectra were analyzed with the Easyspin toolbox,[75] running on Matlab.

[3] = test system: CCRF-CEM; test: NCI-60 five-dose screen; type: cell-based, human; settings: Leukemia
Source text: (§1) The proligands HL^1–HL^3 and their corresponding metal complexes 1–8 prepared in this study were subjected to evaluation of their anticancer potential, including selectivity towards specific types of cancer: leukemia, non-small cell lung (NSCLC), colon, central nervous system (CNS), melanoma, ovarian, renal, prostate and breast cancers, by the National Cancer Institute's Developmental Therapeutics Program. This evaluation involved the utilization of the NCI 60 human tumor cell line panel.[57]
(§2) The NCI-60 SRB assay was performed as described previously.[76] GI50 values (the concentration of the metal complex causing 50% growth inhibition), TGI value (the concentration of the complex causing 0% cell growth), and LC50 (the concentration of the complex causing 50% cell death) were interpolated from dose–response curves that were plots of percentage cell growth versus concentration of test compounds.

[4] = test system: K-562; test: NCI-60 five-dose screen; type: cell-based, human; settings: Leukemia
Protocol: (§3) This evaluation involved the utilization of the NCI 60 human tumor cell line panel.[57]
as §2

[5] = test system: RPMI-8226; test: NCI-60 five-dose screen; type: cell-based, human; settings: Leukemia
Protocol: as §3, §2

[6] = test system: SR; test: NCI-60 five-dose screen; type: cell-based, human; settings: Leukemia
Protocol: as §3, §2

[7] = test system: NCI-H226; test: NCI-60 five-dose screen; type: cell-based, human; settings: Non-Small Cell Lung Cancer
Source text: as §1, §2

[8] = test system: NCI-H460; test: NCI-60 five-dose screen; type: cell-based, human; settings: Non-Small Cell Lung Cancer
Source text: as §1, §2

[9] = test system: NCI-H522; test: NCI-60 five-dose screen; type: cell-based, human; settings: Non-Small Cell Lung Cancer
Source text: as §1, §2

[10] = test system: HCC-2998; test: NCI-60 five-dose screen; type: cell-based, human; settings: Colon cancer
Source text: as §1, §2

[11] = test system: HCT-15; test: NCI-60 five-dose screen; type: cell-based, human; settings: Colon cancer
Source text: as §1, §2

[12] = test system: HT29; test: NCI-60 five-dose screen; type: cell-based, human; settings: Colon cancer
Source text: as §1, §2

[13] = test system: KM12; test: NCI-60 five-dose screen; type: cell-based, human; settings: Colon cancer
Source text: as §1, §2

[14] = test system: SW-620; test: NCI-60 five-dose screen; type: cell-based, human; settings: Colon cancer
Source text: as §1
(§4) GI50 values (the concentration of the metal complex causing 50% growth inhibition), TGI value (the concentration of the complex causing 0% cell growth), and LC50 (the concentration of the complex causing 50% cell death) were interpolated from dose–response curves that were plots of percentage cell growth versus concentration of test compounds.

[15] = test system: SF-268; test: NCI-60 five-dose screen; type: cell-based, human; settings: CNS cancer
Source text: as §1, §4

[16] = test system: SF-295; test: NCI-60 five-dose screen; type: cell-based, human; settings: CNS cancer
Source text: as §1, §4

[17] = test system: SNB-19; test: NCI-60 five-dose screen; type: cell-based, human; settings: CNS cancer
Source text: as §1, §4

[18] = test system: U251; test: NCI-60 five-dose screen; type: cell-based, human; settings: CNS cancer
Source text: as §1, §2

[19] = test system: IGROV1; test: NCI-60 five-dose screen; type: cell-based, human; settings: Ovarian cancer
Source text: as §1, §2

[20] = test system: OVCAR-4; test: NCI-60 five-dose screen; type: cell-based, human; settings: Ovarian cancer
Source text: as §1, §2

[21] = test system: OVCAR-8; test: NCI-60 five-dose screen; type: cell-based, human; settings: Ovarian cancer
Source text: as §1, §2

[22] = test system: NCI/ADR-RES; test: NCI-60 five-dose screen; type: cell-based, human; settings: Ovarian cancer
Source text: as §1, §2

[23] = test system: A498; test: NCI-60 five-dose screen; type: cell-based, human; settings: Renal cancer
Source text: as §1, §2

[24] = test system: ACHN; test: NCI-60 five-dose screen; type: cell-based, human; settings: Renal cancer
Source text: as §1, §2

[25] = test system: SN12C; test: NCI-60 five-dose screen; type: cell-based, human; settings: Renal cancer
Source text: as §1, §2

[26] = test system: TK-10; test: NCI-60 five-dose screen; type: cell-based, human; settings: Renal cancer
Source text: as §4

[27] = test system: UO-31; test: NCI-60 five-dose screen; type: cell-based, human; settings: Renal cancer
Source text: as §4

[28] = test system: PC-3; test: NCI-60 five-dose screen; type: cell-based, human; settings: Prostate cancer
Source text: as §4

[29] = test system: DU-145; test: NCI-60 five-dose screen; type: cell-based, human; settings: Prostate cancer
Source text: as §4

[30] = test system: MDA-MB-231/ATCC; test: NCI-60 five-dose screen; type: cell-based, human; settings: Breast cancer
Source text: as §1, §2

[31] = test system: MDA-MB-468; test: NCI-60 five-dose screen; type: cell-based, human; settings: Breast cancer
Source text: as §1, §2

[32] = test system: purified tubulin; test: Inhibition of tubulin polymerization; type: biochemical; settings: read-out: Inhibition of tubulin polymerization IC50 ± SD
Source text: As a reference for comparison, combretastatin A-4 (CA-4) and Cu(HL^1)Cl2 were used.
The methods used for determination of the IC50 values for tubulin assembly and inhibition of [^3H]colchicine binding were as described previously.[77]

[33] = test system: A549 cells; test: BrdU incorporation assay; settings: 10 μM, 24 h
Protocol: To test directly the antiproliferative activity of the proligands and of their Co(III) and Fe(III) complexes on A549 cancer cells, non-toxic concentrations of the compounds were applied to the cells, then the 5-bromo-2′-deoxy-uridine (BrdU) incorporation assay was performed (Fig. 10).
The effect of proligands HL^1–HL^3 and of metal complexes 1, 2 and 4, 5 on the proliferation of A549 cells was investigated by the BrdU assay (5-bromo-2′-deoxyuridine Labeling and Detection Kit I, Roche, Cat. No. 11 296 736 001). For this, 3 × 10^4 cells were seeded onto glass coverslips that were placed on 24-well plates, and the cells were left to grow overnight. Next day, when the cells reached about 50% confluence, the samples were treated with 10 μM of each compound or with an equivalent volume of DMSO for 24 h. At this point, BrdU labeling solution was added in a 1 : 1000 dilution, and the incubation continued for 30 min. Then the cells were fixed using 70% ethanol in 50 mM glycine (pH 2.0), and immunofluorescence of adherent cells was measured following the manufacturer's instructions. BrdU incorporation was visualized using an Olympus FV10i confocal microscope.

[34] = test system: A549 human lung adenocarcinoma cells; test: MTT viability assay, 24 h; settings: read-out: IC50 values A549; A549 cells, 24 h, MTT assay
Protocol: We wanted to compare the cytotoxicity of proligands HL^1–HL^3 and of their Co(III) and Fe(III) complexes 1, 2 and 4, 5 on cell lines originating from the same tissue, so human lung carcinoma A549 cells and lung fibroblast MRC-5 cells were subjected to 24 h treatments.
The biological effects of selected metal complexes (1, 2, 4 and 5) and of their proligands (HL^1, HL^2 and HL^3) were tested more extensively on A549 human lung adenocarcinoma cells and on MRC-5 human lung fibroblast cells. Both cell lines were obtained from ATCC and maintained in DMEM cell culture media containing 1.0 g L^−1 glucose (Biosera, Nuaille, France) complemented with 10% fetal bovine serum (FBS), 2 mM L-glutamine, 0.01% streptomycin and 0.005% penicillin and were cultured under standard conditions in a 37 °C incubator at 5% CO2 and 95% humidity. The viability of A549 and of MRC-5 fibroblast cells upon exposure to the selected metal–ligand complexes and ligands were evaluated by the MTT assay. For this, 10 000 cells per well were seeded into 96-well plates and left to grow. On the next day the cells were exposed to 0, 5, 10, 20, 40 or 80 μM of each compound or to an equivalent volume of DMSO for 24 h. After the treatments, cells were washed with PBS and then were incubated with 0.5 mg mL^−1 MTT reagent (Sigma-Aldrich, St Louis, Missouri, USA) for 1 h at 37 °C. Finally, 100 μL of DMSO (Molar Chemicals, Halásztelek, Hungary) was added to each well, and the absorbance of samples was measured at 570 nm using a Synergy HTX plate reader (BioTek, Winooski, Vermont, USA). The viability measurements were repeated three times using 3 independent biological replicates.

## CC(=NN=C([S-])Nc1cc(C)c(O)c(C)c1)c1cccc(CN2CCOCC2)n1.CC(=NN=C([S-])Nc1cc(C)c(O)c(C)c1)c1cccc(CN2CCOCC2)n1.O=[N+]([O-])[O-].[Fe+3] [Complex 4, [Fe^III(L^2)2]NO3]
[1]; DMSO and water at pH 7.4
  stability of Fe(III) complexes: slow partial dissociation
[1]; pH 2
  stability of Fe(III) complexes: complete dissociation
[1]; pH 11.7, anoxic conditions
  stability of Fe(III) complexes: the changes were minimal
[2]
  1st oxidation potential (peak potential Ep): 0.40^i* volts vs. Fc^+/Fc
  1st reduction potential (E1/2 or Ep): −0.35^r volts vs. Fc^+/Fc
  2nd reduction potential (E1/2 or Ep): −1.85^q volts vs. Fc^+/Fc
[3]
  GI50: 2.22 µM
[4]
  GI50: 2 µM
[5]
  GI50: 1.81 µM
[6]
  GI50: 2.43 µM
[7]
  GI50: 2.54 µM
[8]
  GI50: 1.98 µM
[9]
  GI50: 2.07 µM
[10]
  GI50: 2.73 µM
[11]
  GI50: 2.36 µM
[12]
  GI50: 7.12 µM
[13]
  GI50: 2.34 µM
[14]
  GI50: 2.3 µM
[15]
  GI50: 2.36 µM
[16]
  GI50: 1.94 µM
[17]
  GI50: 2.76 µM
[18]
  GI50: 1.97 µM
[19]
  GI50: 3.27 µM
[20]
  GI50: 3.25 µM
[21]
  GI50: 2.5 µM
[22]
  GI50: 2.98 µM
[23]
  GI50: 19.8 µM
[24]
  GI50: 3.1 µM
[25]
  GI50: 2.53 µM
[26]
  GI50: 4.13 µM
[27]
  GI50: 1.66 µM
[28]
  GI50: 2.43 µM
[29]
  GI50: 6.29 µM
[30]
  GI50: 2.44 µM
[31]
  GI50: 1.56 µM
[32]
  IC50: 3.4 ± 0.06 µM
[33]
  A549 cell proliferation (BrdU incorporation): significantly less BrdU incorporation
[34]
  IC50: 14 to 17 µM and 17 µM
